The values that follow come from DBAASP.

As usually defined, the MIC is the least concentration at which growth counts as inhibited. A low value points to a more susceptible organism.

Among the test systems are Staphylococcus xylosus; Escherichia coli ML-35p; Saccharomyces cerevisiae; Escherichia coli BL21AI; Micrococcus luteus; Neurospora crassa.
Test in all cases: ≥ marks a high value that may be exact or a test limit, other limits are often not marked, values filed in µg/mL are converted to µM
The test system of assay [1] is Bacillus cereus ATCC 11778.
For assay [2], the system named is Escherichia coli ATCC 25922.
Assay [3] relates to Klebsiella aerogenes ATCC 13048.
Assay [4] has as its system Salmonella enterica subsp. enterica serovar Typhimurium ATCC 14028.
The subject of assay [5] is Staphylococcus aureus ATCC 29213.
For assay [6], the system named is Escherichia coli DH5alpha.
In assay [7] the test system is Pseudomonas aeruginosa ATCC 27853.
Assay [8] relates to Staphylococcus aureus ATCC 29313.
Assay [9] concerns Xanthomonas axonopodis pv. glycines ISBF 327.
Assay [10] concerns Acinetobacter baumannii ATCC 19606.
Assay [11] concerns Candida parapsilosis ATCC 22019.
For assay [12], the system named is Enterococcus faecalis ATCC 29212.
For assay [13], the system named is Klebsiella pneumoniae ATCC 13883.
Assay [14] deals with Staphylococcus aureus ATCC 25923.
The subject of assay [15] is Staphylococcus aureus ATCC 43300.
Assay [16] concerns Staphylococcus aureus ATCC BAA-44.
Assay [17] concerns Staphylococcus aureus ST1065.
In assay [18] the test system is Streptococcus pyogenes ATCC 19615.
In assay [19] the test system is Micrococcus luteus ATCC 10240.
Assay [20] concerns Bacillus anthracis Sterne 34F2.
Assay [21] deals with Bacillus subtilis ATCC 9372.
Assay [22] has as its system Burkholderia thailandensis.

In brackets after ≈: the same amount, converted by molar mass.

On to `CC[C@H](C)[C@H](N)C(=O)N[C@@H](CC(C)C)C(=O)NCC(=O)N[C@@H](CCCCN)C(=O)N[C@H](C(=O)N[C@@H](Cc1c[nH]c2ccccc12)C(=O)N[C@@H](CCC(=O)O)C(=O)NCC(=O)N[C@H](C(=O)N[C@@H](CCC(=O)O)C(=O)N[C@@H](CO)C(=O)N[C@@H](CC(C)C)C(=O)N[C@@H](Cc1ccccc1)C(N)=O)[C@@H](C)CC)[C@@H](C)CC` [ILGKIWEGIESLF], for which the MIC in assay [1] is at least 66.5 µM; in assay [2] it was above 66.5 µM; in assay [3], at least 66.5 µM; in assay [4], above 66.5 µM; in [5], above 66.5 µM.
Take `CC[C@H](C)[C@H](NC(=O)CNC(=O)[C@H](CO)NC(=O)CN)C(=O)N[C@@H](CC(C)C)C(=O)N[C@H](C(=O)N[C@@H](CC(C)C)C(=O)N[C@H](C(=O)N[C@@H](CCCCN)C(=O)N[C@@H](CCCN=C(N)N)C(=O)N[C@@H](CCCCN)C(=O)O)[C@@H](C)CC)[C@@H](C)CC` [GSGILILIKRK]: the minimum inhibitory concentration (MIC) (in assay [6]; against Staphylococcus xylosus) was at least 64 µM throughout.
As for `CC[C@H](C)[C@H](NC(=O)[C@@H](NC(=O)[C@H](CCCCN)NC(=O)CNC(=O)[C@H](C)NC(=O)[C@H](CC(C)C)NC(=O)[C@H](CC(N)=O)NC(=O)[C@H](CCCCN)NC(=O)[C@H](CC(C)C)NC(=O)[C@@H](NC(=O)[C@H](CC(=O)O)NC(=O)[C@H](Cc1ccccc1)NC(=O)[C@H](Cc1ccccc1)NC(=O)[C@@H](N)Cc1ccccc1)[C@@H](C)O)C(C)C)C(=O)NCC(=O)N[C@@H](C)C(=O)N[C@@H](CC(C)C)C(=O)N[C@H](C(N)=O)[C@@H](C)O` [FFFDTLKNLAGKVIGALT], the MIC is 62 µM (≈ 121 µg/mL) in [2], 125 µM (≈ 244 µg/mL) in [7], at least 62 µM in [8] and at least 33 µM in assay [9].
On to `CC[C@H](C)[C@H](N)C(=O)N[C@@H](CC(C)C)C(=O)NCC(=O)N[C@@H](C)C(=O)N[C@H](C(=O)N[C@@H](Cc1c[nH]c2ccccc12)C(=O)N[C@@H](CC(N)=O)C(=O)NCC(=O)N[C@H](C(=O)N[C@@H](CCCCN)C(=O)N[C@@H](CO)C(=O)N[C@@H](CC(C)C)C(=O)N[C@@H](Cc1ccccc1)C(N)=O)C(C)C)C(C)C` [ILGAVWNGVKSLF], for which the minimal inhibitory concentration (MIC) in [1] was at least 71.2 µM; in [2] it was above 71.2 µM; in [3], at least 71.2 µM; in assay [4], above 71.2 µM; in assay [5], above 71.2 µM.
Consider `CSCC[C@H](NC(=O)[C@H](Cc1ccccc1)NC(=O)CNC(=O)[C@H](Cc1ccccc1)NC(=O)[C@H](C)NC(=O)[C@H](CCCN=C(N)N)NC(=O)[C@H](CC(N)=O)NC(=O)[C@H](Cc1ccccc1)NC(=O)[C@H](CC(=O)O)NC(=O)[C@H](CCCCN)NC(=O)[C@H](Cc1ccccc1)NC(=O)[C@H](Cc1cnc[nH]1)NC(=O)[C@H](Cc1ccccc1)NC(=O)[C@H](CCC(N)=O)NC(=O)[C@H](CCCCN)NC(=O)[C@@H](N)Cc1ccccc1)C(=O)N[C@H](C(=O)N[C@@H](CCCN=C(N)N)C(=O)N[C@H](C(=O)N[C@@H](C)C(=O)N[C@@H](CC(C)C)C(=O)N[C@@H](CCC(N)=O)C(=O)N[C@@H](C)C(=O)N[C@@H](CCC(=O)O)C(=O)N[C@@H](CCCCN)C(=O)N[C@@H](CC(C)C)C(N)=O)C(C)C)[C@@H](C)O` [FKQFHFKDFNRAFGFMTRVALQAEKL], for which the minimal inhibitory concentration (MIC) in assay [2] is 40 µM (≈ 127 µg/mL); in assay [7] it was 80 µM (≈ 254 µg/mL); in assay [9], at least 40 µM.
With `NCCCC[C@H](NC(=O)[C@H](CCCN=C(N)N)NC(=O)[C@H](CCCCN)NC(=O)[C@H](CO)NC(=O)CNC(=O)[C@H](CO)NC(=O)CNC(=O)[C@H](CO)NC(=O)[C@H](CCCCN)NC(=O)[C@H](CCCN=C(N)N)NC(=O)[C@@H](N)CCCCN)C(=O)O` [KRKSGSGSKRK], the minimal inhibitory concentration (MIC) (in [6]; with Staphylococcus xylosus) was at least 64 µM in each case.
Take `CC[C@H](C)[C@H](NC(=O)[C@H](Cc1cnc[nH]1)NC(=O)[C@@H]1CCCN1C(=O)[C@@H](NC(=O)[C@H](CC(C)C)NC(=O)[C@H](CO)NC(=O)[C@H](CC(C)C)NC(=O)[C@@H](N)Cc1ccccc1)[C@@H](C)CC)C(=O)N[C@H](C(=O)N[C@@H](CO)C(=O)NCC(=O)N[C@H](C(=O)N[C@@H](C)C(=O)N[C@@H](CO)C(=O)N[C@@H](CC(C)C)C(=O)N[C@@H](C)C(=O)N[C@@H](CCCCN)C(=O)N[C@@H](Cc1cnc[nH]1)C(=O)N[C@@H](Cc1ccccc1)C(N)=O)C(C)C)C(C)C` [FLSLIPHIVSGVASLAKHF]: the MIC in [10] was 6.25 µM (≈ 12.7 µg/mL); in assay [11] it was at least 50 µM; in [12], 25 µM (≈ 50.9 µg/mL); in [2], 25 µM (≈ 50.9 µg/mL); in the assay with Escherichia coli ML-35p, 30 µM (≈ 61.1 µg/mL); in assay [13], 25 µM (≈ 50.9 µg/mL). Besides, the MIC in [7] is 200 µM (≈ 407 µg/mL); against Saccharomyces cerevisiae, 6.25 µM (≈ 12.7 µg/mL); in assay [14], 6.25 µM (≈ 12.7 µg/mL); in assay [15] it was 6.25 µM (≈ 12.7 µg/mL); in assay [16] it was 6.25 µM (≈ 12.7 µg/mL); in [17], 6.25 µM (≈ 12.7 µg/mL). The MIC in assay [18] amounted to 1.56 µM (≈ 3.18 µg/mL).
`CC[C@H](C)[C@H](NC(=O)[C@H](C)NC(=O)[C@H](CCCN=C(N)N)NC(=O)[C@@H]1CCCN1C(=O)[C@@H]1CCCN1C(=O)[C@H](CCCN=C(N)N)NC(=O)[C@@H]1CCCN1C(=O)[C@H](CCCN=C(N)N)NC(=O)[C@@H]1CCCN1C(=O)[C@H](CC(C)C)NC(=O)[C@H](Cc1ccc(O)cc1)NC(=O)[C@@H]1CCCN1C(=O)[C@@H]1CCCN1C(=O)[C@H](CCCCN)NC(=O)[C@H](CC(=O)O)NC(=O)[C@@H](N)C(C)C)C(=O)N[C@@H](Cc1ccc(O)cc1)C(=O)N[C@@H](CC(N)=O)C(=O)N[C@@H](CCCN=C(N)N)C(N)=O` [VDKPPYLPRPRPPRAIYNR]: the MIC against Escherichia coli BL21AI was determined as 13.9 µM (≈ 32 µg/mL); in assay [19], 6.94 µM (≈ 16 µg/mL).
With `CC[C@H](C)[C@H](NC(=O)[C@@H]1CCCN1C(=O)CNC(=O)[C@@H]1CCCN1C(=O)[C@H](CCCN=C(N)N)NC(=O)[C@@H]1CCCN1C(=O)[C@H](CCC(N)=O)NC(=O)[C@H](CC(N)=O)NC(=O)[C@@H]1CCCN1C(=O)[C@H](CC(N)=O)NC(=O)[C@H](Cc1ccccc1)NC(=O)[C@@H]1CCCN1C(=O)[C@H](CO)NC(=O)[C@@H]1CCCN1C(=O)[C@H](CCCN=C(N)N)NC(=O)[C@@H](NC(=O)[C@H](CC(=O)O)NC(=O)[C@H](Cc1ccccc1)NC(=O)[C@@H](NC(=O)[C@@H]1CCCN1C(=O)CNC(=O)[C@H](CCC(N)=O)NC(=O)[C@H](Cc1cnc[nH]1)NC(=O)[C@H](CCCN=C(N)N)NC(=O)[C@@H](N)Cc1cnc[nH]1)[C@@H](C)CC)[C@@H](C)O)C(=O)N[C@@H](Cc1ccc(O)cc1)C(=O)O` [HRHQGPIFDTRPSPFNPNQPRPGPIY], the MIC was at least 100 µM in assay [20]; at least 100 µM in [21]; at least 50 µM in assay [22]; 0.707 µM (≈ 2.14 µg/mL) with Micrococcus luteus; 0.707 µM (≈ 2.14 µg/mL) in the assay with Neurospora crassa.
